Data: US20260083751A1, “ALLOSTERIC MODULATORS OF ANDROGEN RECEPTOR COACTIVATOR RECRUITMENT FOR CRPC THERAPY” (University of Pittsburgh – Of the Commonwealth System of …, priority 2022, published 2026)
Values joined by “and” are separate entries in the source; they are usually repeats but may differ in a detail not shown here. Equal values may be shown once. Read-outs that look alike come from different tables or passages of the source.

Target: T1, AR-LBD / TIF2 box III LXXLL peptide (Homo sapiens, UniProt P10275)
T1 construct: The pET28a-AR-LBD (622-919) construct; made in house
T1 sequence (P10275 622-919): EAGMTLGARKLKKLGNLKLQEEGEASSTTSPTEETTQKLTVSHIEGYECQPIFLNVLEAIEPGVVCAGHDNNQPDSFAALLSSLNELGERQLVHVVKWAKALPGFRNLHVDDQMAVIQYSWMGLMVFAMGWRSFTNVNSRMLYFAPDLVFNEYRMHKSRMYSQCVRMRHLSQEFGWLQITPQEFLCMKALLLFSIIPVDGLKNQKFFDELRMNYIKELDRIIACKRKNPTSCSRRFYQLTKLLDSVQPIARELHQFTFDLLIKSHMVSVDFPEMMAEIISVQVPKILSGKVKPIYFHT
Test: AR-LBD::TIF2 Box III LXXLL peptide binding AlphaScreen assay
Method: […] Biotinylated (Biotin-HN-[…]-CONH2; SEQ ID NO: 1) and non-biotinylated TIF2-box-III (738-756) peptide (H2N-[…]-CONH2; SEQ ID NO: 2) were synthesized by the Peptide & Peptoid Synthesis Facility, at the University of Pittsburgh Health Sciences Core Research Facilities. ALPHAScreen® streptavidin donor beads (SA-DB) and nickel chelate acceptor beads (Ni-AB) were purchased from Perkin Elmer (Waltham, MA). The assay was performed in 384-well white opaque plates (Greiner BioOne, #781080). […] 18 μL of the SA-DB bound biotinylated TIF2 peptide mixture was added to the assay plate before 5 μL of compounds were transferred into assay wells and 27 μL of the AlphaScreen® donor and acceptor B bead mixture was added to the plate. 32 wells containing 0.5% DMSO provided maximum controls and 32 wells containing a 500-fold excess of unlabeled TIF2-box-III (75 μM) were used as minimum controls. The combined head-protein-peptide-compound mixture was incubated for 1 h at room temperature in the dark, and then the RLU's were acquired at 520 nm after excitation at 680 nm on an EnVision® plate reader (Perkin Elmer, Waltham, MA) as described previously (Fancher et al., Assay Drug Dev Technol. 2019, 17:364-386).

[1] = AlphaScreen, read-out: Inhibition DHT-induced TIF2 NR Box 3 LXXLL peptide binding to AR-LBD IC50
[2] = read-out: IC50 in TIF2 LXXLL-peptide AR-LBD binding assay (potency range in words)

Row | Structure (SMILES) | IC50 [1] | IC50 [2] [µM] | IC50 in TIF2 LXXLL-peptide AR-LBD binding assay (potency range in words)
1 | Cc1ccccc1-c1cc(O)c2c(c1)CN(c1nc(C(N)=O)cs1)CCO2 [Compound S1-1] | 21 to 83 µM and 12 µM | 10 to 100 | –
2 | Cc1c(-c2ccccc2F)[nH]c2ccc(CNC(=O)CCc3cn[nH]c3)cc12 [Compound S3-11] | 50 µM and 45.2 µM | 10 to 100 | –
3 | Cc1nc(N)cc(N2CCOc3c(O)cc(-c4ccccc4C)cc3C2)n1 [Compound S1-2] | 21 to 83 µM | – | mid 44 μM
4 | Cc1ccccc1-c1cc(O)c2c(c1)CN(c1nccs1)CCO2 [Compound S1-3] | 21 to 83 µM | – | mid 44 μM
5 | Cc1c(-c2ccccc2F)[nH]c2ccc(CNC(=O)c3ccc(CO)o3)cc12 [Compound S3-14] | – | 10 to 100 | –
6 | COc1cc(-c2ccc(C)s2)cc2c1OCCN(c1nc(C(N)=O)cs1)C2 [Compound S1-5] | > 100 µM | – | –
7 | Cc1nsc(NC(=O)N2CCC(Sc3ccccc3C)CC2)n1 [Compound S2-6] | 49.5 µM | 10 to 100 | –
8 | CC(=O)NCCC(=O)NCc1ccc2[nH]c(-c3ccccc3F)c(C)c2c1 [Compound S3-13] | 92 µM | 10 to 100 | –
9 | Cc1c(-c2ccc(F)cc2)[nH]c2ccc(CNC(=O)c3ccc(CO)o3)cc12 [Compound S3-15] | – | 10 to 100 | –
10 | Cc1c(-c2ccccc2F)[nH]c2ccc(CNC(=O)CCc3cnccn3)cc12 [Compound S3-12] | > 100 µM | – | –
11 | CNC(=O)c1ccc(-c2c[nH]c3c(C)cccc23)cc1 [Compound S3-21] | > 100 µM | – | –
12 | Cc1cccc2c(-c3ccc(O)c(F)c3)c[nH]c12 [Compound S3-17] | – | 1 to 10 | –
